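These data come from cells grown in 96-well plates and exposed to compound for 48 hours at five concentrations. GI50 marks 50% less growth. TGI denotes the concentration required for complete inhibition of growth.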

TGI and GI50 data for twelve compounds are collected here from PubChem BioAssay (NCI).

Among the test systems are BT-549 breast; HCC-2998 colon; MALME-3M melanoma; SK-OV-3 ovarian; OVCAR-3 ovarian; RPMI-8226 leukemia; PC-3 prostate; CAKI-1 renal.
Common to all, as to test: growth of human tumour cells (NCI), 48 h

As for `O=C(O)CC(Cc1ccc2c(c1)OCO2)C(=O)O` (centres undefined), the TGI in the test with BT-549 breast, with HCC-2998 colon, with MALME-3M melanoma, in the test with SK-OV-3 ovarian, in the test on OVCAR-3 ovarian and in the test with RPMI-8226 leukemia was greater than 100 µM each time. Also, the TGI with PC-3 prostate is greater than 100 µM.
Regarding `CC1(C)CCSC(/C=C/c2ccccc2)=N1`, the TGI is 22 µM with BT-549 breast; 25.6 µM in the test on MALME-3M melanoma; greater than 100 µM in the test with SK-OV-3 ovarian; 32.3 µM in the test on CAKI-1 renal; 28.5 µM with OVCAR-3 ovarian; 62.6 µM with RPMI-8226 leukemia. The compound further showed a TGI with PC-3 prostate of 30.5 µM.
`CNC(=O)c1cc(Oc2ccc3nc(NC(=O)Nc4ccc(Cl)c(Cl)c4)sc3c2)ccn1`: the GI50 with BT-549 breast is 4.88 µM; in the test on HCC-2998 colon, 5.04 µM; in the test with MALME-3M melanoma, 1.51 µM; with SK-OV-3 ovarian it was 2.24 µM; in the test with CAKI-1 renal, 2.46 µM; with OVCAR-3 ovarian, 2.31 µM. Besides, the GI50 in the test on RPMI-8226 leukemia was 3.66 µM. Further, the TGI with BT-549 breast is greater than 100 µM; in the test with HCC-2998 colon, greater than 100 µM; with MALME-3M melanoma, 3.3 µM; in the test on SK-OV-3 ovarian, 4.09 µM; in the test with CAKI-1 renal, 6.3 µM; in the test on OVCAR-3 ovarian it was 5.38 µM. Further, the TGI with RPMI-8226 leukemia was greater than 100 µM.
Regarding `c1ccc(-c2nc(Nc3ccc(-c4nc5ccccc5[nH]4)cc3)nc(N3CCOCC3)n2)cc1`, the GI50 in the test with BT-549 breast was 1.98 µM; in the test with MALME-3M melanoma it was 2 µM; in the test with SK-OV-3 ovarian, 2.11 µM; in the test on CAKI-1 renal, 1.28 µM; in the test on OVCAR-3 ovarian, 1.52 µM; in the test with RPMI-8226 leukemia it was 1.11 µM. In addition, in the test on PC-3 prostate, the GI50 was 1.8 µM. The TGI in the test on BT-549 breast was 3.9 µM; with MALME-3M melanoma, 3.85 µM; in the test with SK-OV-3 ovarian, 4.23 µM; with CAKI-1 renal it was 2.54 µM; in the test with OVCAR-3 ovarian, 2.98 µM; in the test with RPMI-8226 leukemia, 4.23 µM. This compound also had a TGI in the test with PC-3 prostate of 3.64 µM.
On to `CC1(C)OC2C(CO)OC(n3ccc(=O)[nH]c3=O)C2O1` (centres undefined), for which the TGI in the test with BT-549 breast, in the test on HCC-2998 colon, in the test with SK-OV-3 ovarian, in the test on CAKI-1 renal, in the test with OVCAR-3 ovarian and with RPMI-8226 leukemia was greater than 100 µM each time. The same compound registered a TGI in the test with PC-3 prostate greater than 100 µM.
For the compound `COc1cc2c(cc1OCCCCCOc1cc(-c3ccc(F)cc3)nc(C)n1)N=C[C@@H]1CCCN1C2=O`, the GI50 is greater than 32.8 µM with BT-549 breast; greater than 48.3 µM in the test with MALME-3M melanoma; greater than 51.6 µM in the test with SK-OV-3 ovarian; greater than 41.7 µM with CAKI-1 renal; greater than 38.2 µM in the test with OVCAR-3 ovarian; greater than 33.3 µM with PC-3 prostate. The TGI in the test with BT-549 breast was greater than 61.1 µM; in the test with MALME-3M melanoma, greater than 68.7 µM; in the test with SK-OV-3 ovarian, greater than 78.8 µM; with CAKI-1 renal, greater than 66.9 µM; in the test on OVCAR-3 ovarian it was greater than 58.3 µM; in the test on RPMI-8226 leukemia, greater than 24 µM. In the test with PC-3 prostate, the TGI was greater than 60.5 µM.
`O=C(CNC(=O)c1cccc2ccccc12)Nc1ccccc1Oc1cccc(O)c1`: the GI50 in the test on BT-549 breast is greater than 25 µM; in the test on HCC-2998 colon, greater than 25 µM; in the test with MALME-3M melanoma, 5.88 µM; in the test with SK-OV-3 ovarian, 13 µM; in the test with OVCAR-3 ovarian it was 1.5 µM; with RPMI-8226 leukemia, 8.04 µM. Further, in the test on PC-3 prostate, the GI50 is 7.13 µM. In addition, the TGI in the test on BT-549 breast, in the test on HCC-2998 colon, in the test on MALME-3M melanoma, in the test with SK-OV-3 ovarian, with OVCAR-3 ovarian and in the test on RPMI-8226 leukemia was greater than 25 µM throughout. The TGI in the test on PC-3 prostate was greater than 25 µM.
On to `O=c1cc/c(=N\Nc2ccccc2)c(=O)/c1=N/Nc1ccccc1`, for which the GI50 with BT-549 breast, in the test with MALME-3M melanoma, with SK-OV-3 ovarian, in the test on CAKI-1 renal, with OVCAR-3 ovarian and in the test on PC-3 prostate was greater than 50 µM each time. The TGI in the test on BT-549 breast, in the test on MALME-3M melanoma, with SK-OV-3 ovarian, in the test with CAKI-1 renal, in the test with OVCAR-3 ovarian and with PC-3 prostate was greater than 50 µM throughout.
Turning to `OCCN(CO)CN(CN(CO)CCO)c1nc(N(CN(CO)CCO)CN(CO)CCO)nc(N(CN(CO)CCO)CN(CO)CCO)n1`, the GI50 with SK-OV-3 ovarian is 1.26 ng/mL; in the test on RPMI-8226 leukemia, 0.55 ng/mL; in the test with PC-3 prostate, 1.48 ng/mL. Moreover, the TGI in the test on SK-OV-3 ovarian was determined as 4.21 ng/mL; with RPMI-8226 leukemia, 0.55 ng/mL; in the test with PC-3 prostate, 4.46 ng/mL.
`OCCNc1nc(NCCO)nc(Nc2ccc(C3=NN(c4cc(Cl)cc(Cl)c4)C(c4ccc(Cl)cc4)C3)cc2)n1` (centres undefined): the GI50 is 1.77 µM in the test on BT-549 breast; 1.96 µM in the test with HCC-2998 colon; 2.1 µM with MALME-3M melanoma; 2.31 µM with SK-OV-3 ovarian; 1.75 µM in the test with OVCAR-3 ovarian; 1.91 µM in the test with RPMI-8226 leukemia. The GI50 in the test with PC-3 prostate was 1.62 µM. For the same compound, the TGI turned out to be 3.8 µM in the test with BT-549 breast; 3.52 µM in the test on HCC-2998 colon; 3.92 µM in the test with MALME-3M melanoma; 5.15 µM with SK-OV-3 ovarian; 3.19 µM in the test with OVCAR-3 ovarian; 4.85 µM in the test on RPMI-8226 leukemia. This compound had a TGI in the test on PC-3 prostate of 4.32 µM.
For the compound `CCOC(=O)c1sc(=S)c2c(C(=O)c3ccccc3)c(C(=O)c3ccccc3)sc2c1C(=O)OCC`, the GI50 was 3.43 µM in the test on BT-549 breast; 37.4 µM in the test on SK-OV-3 ovarian; 3.93 µM in the test with CAKI-1 renal; 2.01 µM with OVCAR-3 ovarian; 2.87 µM with RPMI-8226 leukemia; 3.61 µM with PC-3 prostate. The TGI in the test with BT-549 breast was 12.6 µM; in the test on SK-OV-3 ovarian, greater than 100 µM; with CAKI-1 renal, greater than 100 µM; in the test with OVCAR-3 ovarian, 5.93 µM; in the test with RPMI-8226 leukemia it was 9.19 µM; in the test on PC-3 prostate it was 35.4 µM.
Consider `COc1ccc(Cl)cc1N1C(=O)C(Cl)=C(Nc2cccc(O)c2)C1=O`, for which the GI50 was 11.8 µM in the test on BT-549 breast; 14.5 µM in the test with MALME-3M melanoma; 34.2 µM with SK-OV-3 ovarian; 19.2 µM in the test with CAKI-1 renal; 11.5 µM in the test on OVCAR-3 ovarian; 7.01 µM in the test with RPMI-8226 leukemia. For the same compound, in the test on PC-3 prostate, the GI50 was 17.8 µM. Also, the TGI was 46.2 µM in the test with BT-549 breast; 50.4 µM in the test on MALME-3M melanoma; greater than 100 µM in the test on SK-OV-3 ovarian; 55.2 µM in the test with CAKI-1 renal; 36.5 µM in the test with OVCAR-3 ovarian; 32.3 µM with RPMI-8226 leukemia. The same compound displayed a TGI in the test with PC-3 prostate of 38.6 µM.
